# Where two headings read alike, the source gives them in different places.
# Key:
# [1] = test system: Aspergillus fumigatus strain IP 864.64; assay: In vitro antifungal growth inhibition on microtitre plates (optical density 590 nm), compounds alone or as mixtures (Wadley method); type: cell-based; details: for inhibition at 0.026 µg/mL / inhibition at 0.098 µg/mL / inhibition at 0.39 µg/mL / inhibition at 1.562 µg/mL / inhibition at 6.25 µg/mL / inhibition at 25 µg/mL / inhibition at 100 µg/mL / EC50: Aspergillus fumigatus; for inhibition at 0.026 µg/mL: dose 0.026 μg/ml; for inhibition at 0.098 µg/mL: dose 0.098 μg/ml; for inhibition at 0.39 µg/mL: dose 0.39 μg/ml; for inhibition at 1.562 µg/mL: dose 1.562 μg/ml; for inhibition at 6.25 µg/mL: dose 6.25 μg/ml; for inhibition at 25 µg/mL: dose 25 μg/ml; for inhibition at 100 µg/mL: dose 100 μg/ml
# Experimental: (§1) The following fungi were used for this study: Candida albicans strains IP 48.72 (ATCC 10231) and Aspergillus fumigatus strain IP 864.64 obtained from the Collection Nationale de Cultures de Microorganismes (CNCM) of the Institut Pasteur. The strains are cultured on Yeast Extract-Peptone-Dextrose (YEPD) agar medium comprising 0.5% yeast extract, 0.5% bactopeptone, 2% glucose and 2% agar at 30° C. and in the dark.
# (§2) All these compounds were prepared in a DMSO solution at a final concentration of 100 mg/ml. The stock solutions are stored at −20° C. up to the time of use.
# (§3) The trials are carried out in RPMI 1640 medium with no sodium bicarbonate, but with L-glutamine buffered with 0.165 mol per litre of 3-[N-morpholino]propanesulphonic acid (MOPS), enriched (<>) or otherwise (<>) with 2% glucose. The pH of this medium is adjusted to 7.0. The medium is sterilized by filtration (0.22 μm) and stored at 4° C. up to the time of use.
# (§4) All the antifungal tests are carried out on microtitre plates. The initial suspensions of spores are prepared in a sterile solution containing 0.85% NaCl, supplemented with Tween 80 at 0.01%. These initial suspensions are then diluted in the culture medium (RPMI 1640 enriched or otherwise with 2% glucose) to a final concentration of 10^4 spores per ml. The measurements of viability of each inoculum are verified by subcultures of a volume of 300 μl on YEPD agar medium.
# (§5) The antifungal compounds are tested in a range of concentrations ranging from 0.026 to 100 μg of active ingredient/ml. These antifungal compounds are then diluted in RPMI 1640 medium enriched or otherwise with 2% glucose. A final DMSO concentration of 0.2% is used throughout the measurements. Each trial is carried out on a series of dilutions of antifungal compounds, in duplicate. The antifungal dilutions (0.1 ml) and the fungal inoculum (0.1 ml) are added to each of the wells of the microtitre plate. The plates are then read with a spectrophotometer (ELX 800UV Bio-Tek Instruments, Inc) at a wavelength of 590 nm. The plates are read immediately after (t=0) and after 48 hours' incubation at 30° C. and in the dark. The optical density values obtained are correlated with fungal growth between the times t=0 and t=48 hours. The optical density values are used to calculate the percentage inhibition of growth for each concentration of antifungals by comparison with the control. The values are then used to plot a dose-response curve and the EC50 value is determined for each fungus and each compound with the aid of the Grafit 5.0® software (Erithacus software Ltd).
# (§6) The method which was used to measure the type of interaction existing between the antifungal compounds in the form of mixtures is the Wadley method.
# (§7) In the Wadley approach, the dose-response curve for each of the compounds A and B, and for the mixture AB, is constructed. The EC50 is calculated for each compound taken individually and for the mixture. If a and b are the absolute quantities of the compounds A and B in the mixture (a=1, b=1, a+b=2 under our conditions), the expected effective concentration (EC50exp) may be calculated in the following manner: EC50exp=(a+b)/[a/EC50A)+b/(EC50B)
# (§8) The Wadley approach may be used to estimate the type of interaction existing between the fungal compounds, regardless of their concentration. Its reliability is not dependent on the percentage inhibition. The type of interaction between two compounds is given by the level of interaction (LI) which corresponds to the ratio between the expected effective concentration (EC50exp) and that observed (EC50obs) of the mixture. The nature of the interaction obtained by the Wadley formula is presented in Table 1 (see U. Gisi, Synergistic interaction in fungicide mixtures, 1996. Phytopathology 86, 1273-1279) below.
# (§9) The experimental conditions are the same as previously described.
# [2] = test system: Candida albicans strains IP 48.72 (ATCC 10231); assay: as above; type: cell-based; details: for inhibition at 0.026 µg/mL / inhibition at 0.098 µg/mL / inhibition at 0.39 µg/mL / inhibition at 1.562 µg/mL / inhibition at 6.25 µg/mL / inhibition at 25 µg/mL / inhibition at 100 µg/mL / EC50: Candida albicans; for inhibition at 0.026 µg/mL: dose 0.026 μg/ml; for inhibition at 0.098 µg/mL: dose 0.098 μg/ml; for inhibition at 0.39 µg/mL: dose 0.39 μg/ml; for inhibition at 1.562 µg/mL: dose 1.562 μg/ml; for inhibition at 6.25 µg/mL: dose 6.25 μg/ml; for inhibition at 25 µg/mL: dose 25 μg/ml; for inhibition at 100 µg/mL: dose 100 μg/ml
# Experimental: as §1, §2, §3, §4, §5, §6, §7, §8, §9
# [3] = IP864.64, 48 h, minimal RPMI 1640 medium (MM), 48 hours at 30° C.
# [4] = IP864.64, 48 h, rich RPMI 1640 medium (RM), 48 hours at 30° C.
# [5] = ATCC10231, 48 h, minimal RPMI 1640 medium (MM), 48 hours at 30° C.
# [6] = ATCC10231, 48 h, rich RPMI 1640 medium (RM), 48 hours at 30° C.
smiles,measurement,setting,value
"CCN(C)C=Nc1cc(C)c(Oc2ccc(Cl)c(C(F)(F)F)c2)cc1C [Compound I.1, N-ethyl-N-methyl-N′-[4-(4-chloro-3-trifluoromethylphenoxy)-2,5-dimethylphenyl]imidoformamide]",inhibition at 0.026 µg/mL,[1]; [3],1%
same,inhibition at 0.026 µg/mL,[1]; [4],2.24%
same,inhibition at 0.098 µg/mL,[1]; [3],57.9%
same,inhibition at 0.098 µg/mL,[1]; [4],23.1%
same,inhibition at 0.39 µg/mL,[1]; [3],80.1%
same,inhibition at 0.39 µg/mL,[1]; [4],51.1%
same,inhibition at 1.562 µg/mL,[1]; [3],94.6%
same,inhibition at 1.562 µg/mL,[1]; [4],97.4%
same,inhibition at 6.25 µg/mL,[1]; [3],97.1%
same,inhibition at 6.25 µg/mL,[1]; [4],98.1%
same,inhibition at 25 µg/mL,[1]; [3],98.4%
same,inhibition at 25 µg/mL,[1]; [4],98.1%
same,inhibition at 100 µg/mL,[1]; [3],98.1%
same,inhibition at 100 µg/mL,[1]; [4],97.4%
same,EC50,"[1]; IP864.64, 48 h, minimal RPMI 1640 medium (MM), 48 hours at 30° C., used alone, read-out: EC50",0.1 µg/mL
same,EC50,"[1]; IP864.64, 48 h, rich RPMI 1640 medium (RM), 48 hours at 30° C., used alone, read-out: EC50",0.31 µg/mL
same,EC50,"[1]; IP864.64, 48 h, second study, strain IP 864.64, RPMI 1640 medium enriched with 2% glucose, 48 hours at 30° C., read-out: EC50",0.179 µg/mL
same,EC50,"[1]; IP864.64, on minimal (MM) or rich (RM) RPMI 1640 medium, summary in conclusions, read-out: EC50 values",0.1 to 0.5 µg/mL
same,activity compared with itraconazole (compound II.2),[1]; MM or RM medium,equivalent
same,EC50 compared with that of compound II.2,"[1]; second study, IP 864.64, enriched medium",similar
same,inhibition at 0.026 µg/mL,[2]; [5],4.6%
same,inhibition at 0.026 µg/mL,[2]; [6],12.6%
same,inhibition at 0.098 µg/mL,[2]; [5],7%
same,inhibition at 0.098 µg/mL,[2]; [6],27.3%
same,inhibition at 0.39 µg/mL,[2]; [5],46.1%
same,inhibition at 0.39 µg/mL,[2]; [6],43.6%
same,inhibition at 1.562 µg/mL,[2]; [5],96.2%
same,inhibition at 1.562 µg/mL,[2]; [6],96.9%
same,inhibition at 6.25 µg/mL,[2]; [5],98.7%
same,inhibition at 6.25 µg/mL,[2]; [6],99.5%
same,inhibition at 25 µg/mL,[2]; [5],99.2%
same,inhibition at 25 µg/mL,[2]; [6],99.5%
same,inhibition at 100 µg/mL,[2]; [5],98.1%
same,inhibition at 100 µg/mL,[2]; [6],98.8%
same,EC50,"[2]; ATCC10231, 48 h, minimal RPMI 1640 medium (MM), 48 hours at 30° C., used alone, read-out: EC50",0.41 µg/mL
same,EC50,"[2]; ATCC10231, 48 h, rich RPMI 1640 medium (RM), 48 hours at 30° C., used alone, read-out: EC50",0.3 µg/mL
same,EC50,"[2]; ATCC10231, 48 h, second study, strain IP 48.72, RPMI 1640 medium enriched with 2% glucose, 48 hours at 30° C., read-out: EC50",0.635 µg/mL
same,EC50,"[2]; ATCC10231, on minimal (MM) or rich (RM) RPMI 1640 medium, summary in conclusions, read-out: EC50 values",0.1 to 0.5 µg/mL
same,activity compared with fluconazole (compound II.1),[2]; MM or RM medium,at least equivalent

# Source: patent US20060052459A1, “Antifungal medicaments comprising arylamidine derivatives” (priority 2002, published 2006)
